The source made the active and inactive calls. The rule behind the calls is not given here.
The compounds below were run against Influenza A virus M2 proton channel (A/TW/4845/1999 H1N1) (assay: M2 proton channel binding, NMR based, influenza A virus H1N1 strain (AID 1549)). Details: NMR binding screen, M2 protein.

Row | SMILES | Kd
1 | COC(=O)CCC(C)[C@H]1CCC2C3C(C[C@H](O)[C@@]21C)[C@@]1(C)CC[C@@H](O)C[C@H]1C[C@H]3O (stereo partly drawn) | > 4 mM (inactive)
2 | NC(=O)c1cccc2c1OCCO2 | > 4 mM (inactive)
3 | CC(=O)N1CCC(NC2CCCCCC2)CC1 | > 4 mM (inactive)
4 | Cc1csc2nc(N)nn12 | > 4 mM (inactive)
5 | Cc1nc(N)sc1C(=O)N/N=C/c1ccncc1 | > 4 mM (inactive)
6 | Nc1ccc(Cc2ccncc2)cc1 | > 4 mM (inactive)
7 | Nc1oncc1-c1ccccn1 | > 4 mM (inactive)
8 | Cc1nc2ccc(C(=O)N3CCSCC3)cc2s1 | > 4 mM (inactive)
9 | COc1cc([C@@H]2c3cc4c(cc3C(OC3O[C@@H]5COC(C)O[C@H]5[C@H](O)[C@H]3O)C3COC(=O)[C@@H]32)OCO4)cc(OC)c1O (stereo partly drawn) | > 4 mM (inactive)
10 | Cc1cc(C(=O)N2CCCCCC2)cs1 | > 4 mM (inactive)
11 | Cc1cc(O)c(NC(=O)c2ccco2)cc1C | > 4 mM (inactive)
12 | CC(=O)Nc1cnn(Cc2ccc(Br)cc2)c1 | > 4 mM (inactive)
13 | COc1ccc(N=C2NC(=O)CS2)cc1 | > 4 mM (inactive)
14 | CCN1C(=O)c2cccc3c(S(N)(=O)=O)ccc1c23 | > 4 mM (inactive)
15 | NC(=O)NC1NC(=O)NC1=O (stereo not drawn) | > 4 mM (inactive)
16 | CN1C(=O)c2ccc(N3CCCC3)cc2C1=O | > 4 mM (inactive)
17 | O=C(O)CCC(=O)NCc1cccnc1 | > 4 mM (inactive)
18 | Cc1cccc(N2C(=O)CC(=O)NC2=O)c1 | > 4 mM (inactive)
19 | CCOc1ccccc1C(=O)NC1=NCCS1 | > 4 mM (inactive)
20 | CN1CCC[C@H]1c1cccnc1 | > 4 mM (inactive)
21 | Nc1nnc(C(F)(F)F)s1 | > 4 mM (inactive)
22 | CC(C)(O)[C@@H]1[C@H]2OC(=O)[C@@H]1[C@]1(O)C[C@H]3O[C@]34C(=O)O[C@H]2[C@]14C | > 4 mM (inactive)
23 | O=C(O)C1Cc2ccccc2O1 (stereo not drawn) | > 4 mM (inactive)
24 | Cn1nnc2cc(CO)ccc21 | > 4 mM (inactive)

Row | SMILES | Kd
25 | NC(=O)c1ccc(N2CCCCC2)c(N)c1 | > 4 mM (inactive)
26 | Cc1cc(NC(=O)c2cnn3cccnc23)no1 | > 4 mM (inactive)
27 | CCNC(=S)N1CCCC(C(N)=O)C1 (stereo not drawn) | > 4 mM (inactive)
28 | CC(=O)c1cccc(NC(=O)N2CCc3ccccc3C2)c1 | > 4 mM (inactive)
29 | O=C(Nc1ccccc1N1CCCC1)c1cccnc1 | > 4 mM (inactive)
30 | c1ccc(CNc2ncnc3nc[nH]c23)nc1 | > 4 mM (inactive)
31 | COc1cc2c(cc1OC)[C@@H]1C(=O)c3ccc4c(c3O[C@@H]1CO2)CC(C(C)C)O4 (stereo partly drawn) | > 4 mM (inactive)
32 | CCn1ncc(Cl)c1C(=O)Nc1ccncc1 | > 4 mM (inactive)
33 | O=C1C=CC(=O)N1c1ccc(N2CCOCC2)cc1 | > 4 mM (inactive)
34 | CC(=O)c1c(C)nn(CC(=O)O)c1C | > 4 mM (inactive)
35 | OCc1csc(-c2ccccc2)n1 | > 4 mM (inactive)
36 | COc1cccc2c(=O)n(CC(N)=O)ccc12 | > 4 mM (inactive)
37 | CC(=O)Nc1cccc(-c2nnc3n2CC(C)S3)c1 (stereo not drawn) | > 4 mM (inactive)
38 | c1ccc(-c2nsc(N3CCNCC3)n2)cc1 | > 4 mM (inactive)
39 | NC(=O)CC(=O)NC12CC3CC(CC(C3)C1)C2 | > 4 mM (inactive)
40 | CN1CCN(CC(=O)Nc2ccccc2)CC1 | > 4 mM (inactive)
41 | COc1ccc2c(c1)OC/C(=C\c1ccc(OC)c(O)c1)C2=O | > 4 mM (inactive)
42 | Cn1c(=O)n(CC(=O)Nc2cccnc2)c2ccccc21 | > 4 mM (inactive)
43 | S=c1ccc(N2CCCCC2)n[nH]1 | > 4 mM (inactive)
44 | Cc1cc(S(=O)(=O)N2CCOCC2)ccc1F | > 4 mM (inactive)
45 | Cc1cc(NS(=O)(=O)Cc2ccccc2)no1 | > 4 mM (inactive)
46 | Cc1nc2ccccc2c(=O)n1-c1cccc(O)c1 | > 4 mM (inactive)
47 | Cc1cc(NC(=O)CS(=O)(=O)c2ccccc2)no1 | > 4 mM (inactive)
48 | CC12CNCC(C)(CNC1)C2O (stereo not drawn) | > 4 mM (inactive)

Row | SMILES | Kd
49 | Cn1c(=O)n(C)c2cc(C(N)=O)ccc21 | > 4 mM (inactive)
50 | O=C(O)c1cn(-c2ccccc2)nc1-c1cccnc1 | > 4 mM (inactive)
51 | O=c1[nH]c(O)c(C=NC2CC2)c(=O)[nH]1 | > 4 mM (inactive)
52 | NC(=O)C1CCN(c2nccc(C(F)(F)F)n2)CC1 | > 4 mM (inactive)
53 | Cc1nc2cc(NC(=O)Nc3nccs3)ccc2n1C | > 4 mM (inactive)
54 | CC(=O)N1CCN(c2ccc(N)cc2)CC1 | > 4 mM (inactive)
55 | Cc1c(C(=O)Nc2ccncc2)oc2c1C(=O)CC(C)(C)C2 | > 4 mM (inactive)
56 | CSc1nc2[nH]ncc2c(=O)[nH]1 | > 4 mM (inactive)
57 | O=C1COc2ccc(C(=O)c3ccccc3)cc2CN1 | > 4 mM (inactive)
58 | Cc1cc(C)n(-c2nncn2N)n1 | > 4 mM (inactive)
59 | Cn1c(O)c(/C=C2\C=CC=N2)c(=O)[nH]c1=S | > 4 mM (inactive)
60 | CN1CCC(N(C)Cc2cccnc2)CC1 | > 4 mM (inactive)
61 | NC(=O)CN1C(=O)c2cccc3cccc1c23 | > 4 mM (inactive)
62 | O=S(=O)(Cc1ccccc1)N1CCCCCC1 | > 4 mM (inactive)
63 | CC(=O)OC1CCC2(C)C(=CC=C3C2CCC2(C)C3CCC2C(C)/C=C/C(C)C(C)C)C1(C)C (stereo not drawn) | > 4 mM (inactive)
64 | COc1c(O)cc2oc3cc(O)c(CC=C(C)C)c(O)c3c(=O)c2c1CC=C(C)C | > 4 mM (inactive)
65 | Cc1cc2nc(SCC(=O)O)nc(C)c2cc1C | > 4 mM (inactive)
66 | COc1cc(O)c2c(=O)cc(-c3ccc(OC)c(-c4c(O)cc(O)c5c(=O)cc(-c6ccc(O)cc6)oc45)c3)oc2c1 | > 4 mM (inactive)
67 | CC(=O)Nc1ccn(Cc2c(F)cccc2Cl)n1 | > 4 mM (inactive)
68 | COc1ccc(-c2coc3c(OC)c(OC)cc(O)c3c2=O)cc1 | > 4 mM (inactive)
69 | COc1cccc(-c2cc(=O)c3cc(OC)ccc3o2)c1 | > 4 mM (inactive)
70 | O=c1[nH]cnc2nc[nH]c12 | > 4 mM (inactive)
71 | CN1CC(=O)Nc2ccc([N+](=O)[O-])cc2C1=O | > 4 mM (inactive)
72 | O=c1c2ccccc2oc2ccc(O)cc12 | > 4 mM (inactive)

Row | SMILES | Kd
73 | CN(C)C(=O)c1ccc(-c2n[nH]c(=O)c3ccccc23)cc1 | > 4 mM (inactive)
74 | Cc1[nH]ccc2c1[nH]c1cc(=O)ccc12 | > 4 mM (inactive)
75 | CC(C)NC(=O)c1cc(=O)n(C)c(=O)n1C | > 4 mM (inactive)
76 | O=C1CC(=O)N(c2ccccc2F)C(=S)N1 | > 4 mM (inactive)
77 | CNC(=O)N1CCN(C(=O)NC)CC1 | > 4 mM (inactive)
78 | Cc1nnc(N2CCN(Cc3ccccc3)CC2)[nH]c1=O | > 4 mM (inactive)
79 | CSc1ccccc1NC(=O)c1ccncc1 | > 4 mM (inactive)
80 | COc1ccccc1N1C(=N)SCC1=O | > 4 mM (inactive)
81 | Cc1cc(C)n(S(=O)(=O)c2ccc(C)c(C)c2C)n1 | > 4 mM (inactive)
82 | CC(=O)Nc1ccc(Nc2nnc(C)c(=O)[nH]2)cc1 | > 4 mM (inactive)
83 | C[C@H]1[C@H](C)CC[C@]2(CO)CC[C@]3(C)C(=CCC4[C@@]5(C)CC[C@H](O)C(C)(C)C5CC[C@]43C)[C@H]12 (stereo partly drawn) | > 4 mM (inactive)
84 | CC(=O)Nc1ccc(Oc2nc(C)cc(C)n2)cc1 | > 4 mM (inactive)
85 | O=C1C=CC(=O)N1c1ccccc1O | > 4 mM (inactive)
86 | NC(=O)CCn1c(=O)oc2ccccc21 | > 4 mM (inactive)
87 | O=C(NC1CCS(=O)(=O)C1)c1cccs1 (stereo not drawn) | > 4 mM (inactive)
88 | C[C@H]1O[C@@H](O[C@H]2[C@@H](O)C[C@H](O[C@H]3[C@@H](O)C[C@H](O[C@H]4CC[C@]5(C)C6C[C@@H](O)[C@]7(C)[C@@H](C8=CC(=O)OC8)CC[C@]7(O)C6CC[C@@H]5C4)O[C@@H]3C)O[C@@H]2C)C[C@H](O)[C@@H]1O (stereo partly drawn) | > 4 mM (inactive)
89 | CC(=O)Nc1ccn(-c2ccccc2)n1 | > 4 mM (inactive)
90 | OCc1cccc2c1OCCO2 | > 4 mM (inactive)
91 | O=C(Nc1ccccc1CO)c1ccccc1F | > 4 mM (inactive)
92 | OC12C=CC(CC1)CC2 | > 4 mM (inactive)
93 | CSc1ccc(/C=c2\sc3ncnn3c2=O)cc1 | > 4 mM (inactive)
94 | N[C@@H](Cc1cc(I)c(Oc2cc(I)c(O)c(I)c2)c(I)c1)C(=O)O | > 4 mM (inactive)
95 | O=C(Nc1c[nH]c(=O)[nH]c1=O)c1cccs1 | > 4 mM (inactive)
96 | CC[C@]12CCCN3CCc4c(n(c5ccccc45)[C@](O)(C(=O)OC)C1)[C@@H]32 | > 4 mM (inactive)

Row | SMILES | Kd
97 | CC(=O)Nc1cccc(N2C(=O)CCC2=O)c1 | > 4 mM (inactive)
98 | OCC1CCCC1O (stereo not drawn) | > 4 mM (inactive)
99 | Cc1nnc(SCC(=O)Nc2ccccc2)[nH]c1=O | > 4 mM (inactive)
100 | NC(=O)c1ccccc1NC(=O)C1CC1 | > 4 mM (inactive)
101 | O=C(O)CCC(=O)Nc1nnc(C(F)(F)F)s1 | > 4 mM (inactive)
102 | CNc1nnc(Cc2csc(N)n2)s1 | > 4 mM (inactive)
103 | COc1ccc(NS(=O)(=O)c2ccc(N)cc2)nn1 | > 4 mM (inactive)
104 | Cc1cc(C)nc(NC(N)=NCc2ccco2)n1 | > 4 mM (inactive)
105 | Cc1cccc(C)c1N1C(=O)CCC1=O | > 4 mM (inactive)
106 | Cc1c(C)[n+]([O-])c(-c2ccc([N+](=O)[O-])cc2)n1O | > 4 mM (inactive)
107 | Cn1nc(C(C)(C)C)cc1N | > 4 mM (inactive)
108 | O=S(=O)(N1CCOCC1)n1nnc2ccccc21 | > 4 mM (inactive)
109 | O=C(Nn1cnnc1)c1cc2c(s1)CCCCC2 | > 4 mM (inactive)
110 | Cc1onc(-c2c(Cl)cccc2Cl)c1C(N)=O | > 4 mM (inactive)
111 | NCC1COc2ccccc2O1 (stereo not drawn) | > 4 mM (inactive)
112 | Cc1ccccc1OCC(=O)O | > 4 mM (inactive)
113 | CC(=O)OCC(OC(C)=O)C(OC(C)=O)C(OC(C)=O)C(OC(C)=O)C(COC(C)=O)OC(C)=O (stereo not drawn) | > 4 mM (inactive)
114 | Cc1nc(-c2cccc(N)c2)cs1 | > 4 mM (inactive)
115 | Fc1cc2nccnc2cc1N1CCSCC1 | > 4 mM (inactive)
116 | COc1cccc(-c2nn(-c3ccccc3)cc2CO)c1 | > 4 mM (inactive)
117 | C=C(C)C1(O)OC(=O)C=C1OC (stereo not drawn) | > 4 mM (inactive)
118 | Cc1nc2ccc(C(=O)O)cc2nc1C | > 4 mM (inactive)

Reference: PubChem BioAssay AID1549 (Sanford-Burnham Center for Chemical Genomics, 2009)
